Test results published in patent US20250195533A1, “COMBINATION THERAPIES FOR THE TREATMENT OF CANCER” (Erasca, Inc., priority 2020, published 2025).

Legend:
NCI-H358 cells = assay: CellTiter-Glo cellular proliferation/viability assay, fixed concentration of KRAS G12C inhibitor; type: cell-based; details: Homo sapiens, 120 h, compound of Formula I alone, 5 days, read-out: 2D CTG IC50
From the text: The combination was studied by a cell viability assay. NCI-H358 cells were split onto a 96-well plate.

NCI-H2122 cells = assay: as above; type: cell-based; details: Homo sapiens, NCI-H2122, 120 h, compound of Formula I alone, 5 days, read-out: 2D CTG IC50

## COCOC[C@H]1C[C@H]2COc3c(Sc4cnc(N5CCC6(CC5)CO[C@@H](C)[C@H]6N)c(CO)n4)ccnc3N2C1 [The compound of Formula I]
NCI-H358 cells
  IC50: 168 nM
NCI-H2122 cells
  IC50: 2780 nM
